Reference: publication PMC12592400, “A unique inhibitor conformation selectively targets the DNA polymerase PolC of Gram-positive priority pathogens” (Nature Communications, 2025)
“And” between values parts separate entries of the source, which are not always exact repeats. Equal values may be shown once.

Assays:
[1] = test system: E. faecium PolC^F1276S (exonuclease-inactivated); test: Real-time DNA primer extension assay; assay type: biochemical, Enterococcus faecium; conditions: versus wild-type PolC
Source text: (§1) The genes for PolC (locus_tag: MIBBHLJO_01574) and DnaE (locus_tag: MIBBHLJO_00911) from E. faecium ATCC 700221 were codon-optimized for expression in E. coli and synthesized in vector pET28b by Twist Bioscience (San Francisco, CA). Expression constructs for variant PolC proteins were created with QuikChange Site-Directed Mutagenesis (Agilent) with oligonucleotides listed in Supplementary Table 3. F1276L, F1276S, and A1281T were introduced to assess the effect of these mutations on inhibition by ACX compounds. Mutations D972A and D974A were introduced to inactivate the polymerase activity and mutations D431A and E433A were introduced to inactivate the exonuclease activity (Fig. 1d, Supplementary Fig. 1).
(§2) Polymerase activity was monitored in real-time[31],[32] with a 42-nt long 5’ carboxyfluorescein-labelled DNA oligonucleotide template strand (DNASP8_42) annealed to a 30-nt primer oligonucleotide (oMU014). Polymerase activity in this assay is monitored by measuring fluorescence quenching of the labelled DNA template as a result of primer extension by PolC (for details see Supplementary Fig. 1b, c). Both primers were HPLC purified. Primer extension assays were performed in Reaction Buffer (see Gel-based polymerase and exonuclease assays) supplemented with 0.5 mg/mL BSA, 0.05% Tween20 and 25 uM of each dNTP (SRB) in 384-well Black Round Bottom plates (Corning 4514). The polymerase was diluted in the SRB and incubated for at least 5 min in the presence of inhibitor or solvent, with a final solvent concentration of 1%. The reaction was initiated by the addition of an equal volume of DNA substrate in SRB as described below. Fluorescence emission data was collected with a BMG Labtech PHERAstar FSX reader for 30 min at room temperature.
(§3) Compounds were dispensed with an Echo acoustic liquid handler (Beckman Coulter). All compounds were dissolved to 1 mM and 10 mM stocks in 100% DMSO and transferred to Echo LDV or PP source plates (Labcyte, Inc., CA), then dispensed to 384-well plates with a Labcyte Echo550 or Echo650 acoustic dispenser at volumes of 2.5 to 100 nL per well. […] A Mantis microfluidic liquid dispenser (Formulatrix) was used to dispense 5 µL polymerase and 5 µL substrate DNA (individually diluted in SRB) per well. […] The final concentration of DNA was 70 nM.
(§4) Data were analysed and standard error of the means (SEM) determined in Prism 8.4.2 and 10.2.3 (GraphPad). Raw time-course polymerase activity was plotted against time, with SEM of triplicates determined. The rate of activity (represented by signal quenching) was determined during the first 8 min (linear stage) by calculating the slope of fluorescence intensity change (converted to a positive value) over time (in seconds). The slopes were then normalized to percentage activity (%); per ‘replicate range’, 100% activity was defined as polymerase activity in the absence of inhibitor (polymerase control), and 0% activity was determined in the absence of polymerase (DNA signal; negative control). The SEM was determined between ‘replicate ranges’. The IC50 was determined using the dose-response (inhibition) nonlinear regression ‘[Inhibitor] vs. response (three parameters)’ without constraints.

[2] = target: T1, E. faecium PolC^F1276S (exonuclease-inactivated) (Enterococcus faecium, UniProt A0A9X4B319, D429A/E431A/F1274S); test: Real-time DNA primer extension assay; assay type: biochemical; conditions: for rate of activity (slope of fluorescence intensity change over time): Fig. 4b source data, F1267S
T1 sequence (A0A9X4B319 1-1450 D429A/E431A/F1274S): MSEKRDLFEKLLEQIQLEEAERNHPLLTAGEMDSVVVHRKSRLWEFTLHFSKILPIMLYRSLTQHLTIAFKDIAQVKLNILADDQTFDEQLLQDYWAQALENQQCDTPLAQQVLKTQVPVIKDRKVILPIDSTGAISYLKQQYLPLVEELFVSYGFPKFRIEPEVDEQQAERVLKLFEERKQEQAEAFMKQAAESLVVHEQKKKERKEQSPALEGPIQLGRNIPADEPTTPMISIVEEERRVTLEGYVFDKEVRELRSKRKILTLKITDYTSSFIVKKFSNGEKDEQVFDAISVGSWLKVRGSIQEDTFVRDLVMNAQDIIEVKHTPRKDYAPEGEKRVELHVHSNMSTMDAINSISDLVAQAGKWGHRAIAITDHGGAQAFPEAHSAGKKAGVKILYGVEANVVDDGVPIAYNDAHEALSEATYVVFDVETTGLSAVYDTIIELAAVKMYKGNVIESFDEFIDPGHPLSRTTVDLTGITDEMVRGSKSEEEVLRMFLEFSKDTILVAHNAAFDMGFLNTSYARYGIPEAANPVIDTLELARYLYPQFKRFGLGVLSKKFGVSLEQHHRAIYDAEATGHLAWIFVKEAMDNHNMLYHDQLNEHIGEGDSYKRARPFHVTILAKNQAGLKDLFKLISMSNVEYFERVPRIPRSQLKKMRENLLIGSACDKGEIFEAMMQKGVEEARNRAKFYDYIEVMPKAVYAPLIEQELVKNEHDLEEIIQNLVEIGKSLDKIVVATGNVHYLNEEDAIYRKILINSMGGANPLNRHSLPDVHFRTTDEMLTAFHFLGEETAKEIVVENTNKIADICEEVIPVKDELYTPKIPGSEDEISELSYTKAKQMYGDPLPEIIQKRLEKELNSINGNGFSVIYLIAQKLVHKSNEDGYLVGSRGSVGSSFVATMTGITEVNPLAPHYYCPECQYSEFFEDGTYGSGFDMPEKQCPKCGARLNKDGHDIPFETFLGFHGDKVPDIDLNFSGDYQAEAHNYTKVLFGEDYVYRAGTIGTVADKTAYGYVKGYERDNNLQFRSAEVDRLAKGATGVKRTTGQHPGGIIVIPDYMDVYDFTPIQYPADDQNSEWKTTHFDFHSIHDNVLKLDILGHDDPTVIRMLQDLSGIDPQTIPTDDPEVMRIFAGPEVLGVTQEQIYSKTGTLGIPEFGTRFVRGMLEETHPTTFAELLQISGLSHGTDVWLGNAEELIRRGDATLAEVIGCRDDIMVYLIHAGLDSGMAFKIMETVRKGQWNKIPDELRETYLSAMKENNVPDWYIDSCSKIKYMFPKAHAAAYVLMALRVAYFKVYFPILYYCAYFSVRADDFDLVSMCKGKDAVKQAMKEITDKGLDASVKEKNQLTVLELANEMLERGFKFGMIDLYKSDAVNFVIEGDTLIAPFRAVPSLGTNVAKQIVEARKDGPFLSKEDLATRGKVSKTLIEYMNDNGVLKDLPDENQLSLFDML
Source text: as §1, §2, §3, §4

[3] = test system: C. difficile strain carrying a F1258L mutation; test: MIC of C. difficile strain obtained by one-step passage; assay type: cell-based; conditions: Clostridioides difficile

Row | Compound | increase in IC50 by the F1276S mutation [1] [fold] | IC50 [2] [µM] | rate of activity (slope of fluorescence intensity change over time) ([2]; inhibitor 1 uM) | rate of activity (slope of fluorescence intensity change over time) ([2]; inhibitor 1.75 uM) | rate of activity (slope of fluorescence intensity change over time) ([2]; inhibitor 2.5 uM) | rate of activity (slope of fluorescence intensity change over time) ([2]; inhibitor 4 uM) | rate of activity (slope of fluorescence intensity change over time) ([2]; inhibitor 5.75 uM) | rate of activity (slope of fluorescence intensity change over time) ([2]; inhibitor 8.8 uM) | rate of activity (slope of fluorescence intensity change over time) ([2]; inhibitor 20 uM) | rate of activity (slope of fluorescence intensity change over time) ([2]; inhibitor 30 uM) | rate of activity (slope of fluorescence intensity change over time) ([2]; inhibitor 45 uM) | rate of activity (slope of fluorescence intensity change over time) ([2]; inhibitor 67.5 uM) | rate of activity (slope of fluorescence intensity change over time) ([2]; inhibitor 100 uM) | rate of activity (slope of fluorescence intensity change over time) ([2]; inhibitor 150 uM) | rate of activity (slope of fluorescence intensity change over time) ([2]; inhibitor 225 uM) | MIC [3] [µg/mL]
1 | O=c1[nH]c(NCc2ccc(Cl)c(Cl)c2)nc2ncn(CCN3CCOCC3)c12 [IBZ, N^2-(3,4-dichlorobenzyl)-7-(2-[1-morpholinyl]ethyl)guanine] | > 48 | > 225 | 29.0 and 29.8 and 31.7 | 30.0 and 28.9 and 29.5 | 26.9 and 26.5 and 27.3 | 31.2 and 29.8 and 29.5 | 28.2 | 25.6 and 30.1 and 32.4 | 30.9 and 27.1 and 31.2 | 29.0 and 27.4 | 31.6 and 29.8 and 28.0 | 29.0 and 32.1 and 30.5 | 28.6 and 28.2 | 27.2 and 24.9 and 25.9 | 28.0 and 22.8 | 64
2 | O=c1[nH]c(NCc2ccc3c(c2)OC(F)(F)O3)nc2c(F)nn(CCO)c12 [ACX-801, 5-(((2,2-difluorobenzo[d][1,3]dioxol-5-yl)methyl)amino)-3-fluoro-1-(2-hydroxyethyl)-1,6-dihydro-7H-pyrazolo[4,3-d]pyrimidin-7-one] | > 8 | 101 ± 8.8 | 29.5 and 29.8 and 30.7 | 30.8 and 30.2 and 30.4 | 31.6 and 32.7 and 27.4 | 31.4 and 30.5 and 33.1 | 30.4 and 30.7 and 31.4 | 31.4 and 31.3 and 30.8 | 28.6 and 27.8 | 22.8 and 24.4 and 24.1 | 18.0 and 19.1 | 14.6 and 12.2 | 10.5 and 12.0 and 13.4 | – | 6.1 and 6.2 and 5.0 | –
